{"source": "ChEMBL document CHEMBL5550184", "about": "“Structure-activity relationships of middle-size cyclic peptides, KRAS inhibitors derived from an mRNA display” (Bioorg Med Chem, 2024)", "key": {"[1]": {"assay": "Clearance in Cynomolgus monkey at 0.168 mg/kg, iv measured upto 24 hrs by LC-MS/MS analysis", "assay_type": "ADME, organism-based, Macaca fascicularis", "conditions": "in vivo"}, "[2]": {"assay": "Oral bioavailability in Wistar Hannover rat at 10 mg/kg measured upto 48 hrs by LC-MS/MS analysis", "assay_type": "ADME, organism-based", "conditions": "in vivo"}, "[3]": {"assay": "Metabolic stability in rat liver microsomes assessed as intrinsic clearance per mg protein at 0.2 uM measured upto 30 mins by LC-MS/MS analysis", "assay_type": "ADME, Microsome", "conditions": "read-out: CLH"}, "ASPC1": {"tested_on": "ASPC1", "assay": "Cytotoxicity against human AsPC1 cells assessed as reduction in cell viability incubated for 7 days by CellTiterGlo Luminescent Cell Viability Assay", "assay_type": "functional, cell-based", "conditions": "ASPC1, 168 h"}, "[4]": {"assay": "Half-life in BALB/c nude mouse at 1 mg/kg, iv measured upto 24 hrs by LC-MS/MS analysis", "assay_type": "ADME, organism-based", "conditions": "in vivo"}, "[5]": {"assay": "Half-life in BALB/c nude mouse at 20 mg/kg, po measured upto 24 hrs by LC-MS/MS analysis", "assay_type": "ADME, organism-based", "conditions": "in vivo"}, "[6]": {"assay": "Oral bioavailability in Cynomolgus monkey at 10 mg/kg measured upto 24 hrs by LC-MS/MS analysis", "assay_type": "ADME, organism-based, Macaca fascicularis", "conditions": "in vivo"}, "[7]": {"assay": "Half-life in Cynomolgus monkey at 10 mg/kg, po measured upto 48 hrs by LC-MS/MS analysis", "assay_type": "ADME, organism-based, Macaca fascicularis", "conditions": "in vivo"}, "[8]": {"assay": "AUCinfinity in Cynomolgus monkey at 0.168 mg/kg, iv measured upto 24 hrs by LC-MS/MS analysis", "assay_type": "ADME, organism-based, Macaca fascicularis", "conditions": "in vivo"}, "[9]": {"assay": "Volume of distribution at steady state in BALB/c nude mouse at 1 mg/kg, iv measured upto 24 hrs by LC-MS/MS analysis", "assay_type": "ADME, organism-based", "conditions": "in vivo, read-out: Vdss"}, "[10]": {"assay": "AUCinfinity in BALB/c nude mouse at 20 mg/kg, po measured upto 24 hrs by LC-MS/MS analysis", "assay_type": "ADME, organism-based", "conditions": "in vivo, po, 20 mg/kg, 24 h"}, "[11]": {"assay": "Half-life in Wistar Hannover rat at 10 mg/kg, po measured upto 48 hrs by LC-MS/MS analysis", "assay_type": "ADME, organism-based", "conditions": "in vivo"}, "GTPase KRas": {"molecular_target": "GTPase KRas (Homo sapiens, UniProt P01116, G12D)", "sequence (P01116 whole entry G12D)": "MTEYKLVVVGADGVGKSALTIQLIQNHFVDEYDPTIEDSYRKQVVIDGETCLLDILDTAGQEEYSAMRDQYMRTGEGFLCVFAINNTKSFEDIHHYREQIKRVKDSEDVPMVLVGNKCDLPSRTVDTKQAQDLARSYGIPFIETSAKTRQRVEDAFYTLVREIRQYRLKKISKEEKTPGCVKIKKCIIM", "assay": "Binding affinity to biotinylated KRAS G12D mutant (unknown origin) incubated for 120 mins by SPR analysis"}, "[12]": {"assay": "Metabolic stability in human liver microsomes assessed as intrinsic clearance per mg protein at 0.2 uM measured upto 30 mins by LC-MS/MS analysis", "assay_type": "ADME, Microsome", "conditions": "read-out: CLH"}, "[13]": {"assay": "Apparent permeability in human Caco-2 cells incubated for 180 mins by LC-MS/MS method", "assay_type": "ADME, cell-based"}, "[14]": {"assay": "AUCinfinity in Wistar Hannover rat at 10 mg/kg, po measured upto 48 hrs by LC-MS/MS analysis", "assay_type": "ADME, organism-based", "conditions": "in vivo"}, "[15]": {"assay": "Volume of distribution at steady state in Cynomolgus monkey at 0.168 mg/kg, iv measured upto 24 hrs by LC-MS/MS analysis", "assay_type": "ADME, organism-based, Macaca fascicularis", "conditions": "in vivo, read-out: Vdss"}, "[16]": {"assay": "Inhibition of biotin-tagged KRAS G12D mutant (unknown origin) to recombinant His-tagged SOS1 (unknown origin) protein-protein interaction incubated for 120 mins by AlphaLISA method", "set-up": "species or system Homo sapiens"}, "[17]": {"assay": "Oral bioavailability in BALB/c nude mouse at 20 mg/kg measured upto 24 hrs by LC-MS/MS analysis", "assay_type": "ADME, organism-based", "conditions": "in vivo, po, 20 mg/kg, 24 h"}, "[18]": {"assay": "Half-life in Cynomolgus monkey at 0.168 mg/kg, iv measured upto 24 hrs by LC-MS/MS analysis", "assay_type": "ADME, organism-based, Macaca fascicularis", "conditions": "in vivo"}, "[19]": {"assay": "Metabolic stability in mouse liver microsomes assessed as intrinsic clearance per mg protein at 0.2 uM measured upto 30 mins by LC-MS/MS analysis", "assay_type": "ADME, Microsome", "conditions": "read-out: CLH"}, "[20]": {"assay": "Half-life in Wistar Hannover rat at 1 mg/kg, iv measured upto 24 hrs by LC-MS/MS analysis", "assay_type": "ADME, organism-based", "conditions": "in vivo, iv, 1 mg/kg, 24 h"}, "[21]": {"assay": "Clearance in BALB/c nude mouse at 1 mg/kg, iv measured upto 24 hrs by LC-MS/MS analysis", "assay_type": "ADME, organism-based", "conditions": "in vivo"}, "[22]": {"assay": "AUCinfinity in Cynomolgus monkey at 10 mg/kg, po measured upto 48 hrs by LC-MS/MS analysis", "assay_type": "ADME, organism-based, Macaca fascicularis", "conditions": "in vivo"}, "[23]": {"assay": "AUCinfinity in BALB/c nude mouse at 1 mg/kg, iv measured upto 24 hrs by LC-MS/MS analysis", "assay_type": "ADME, organism-based", "conditions": "in vivo, iv, 1 mg/kg, 24 h"}, "[24]": {"assay": "AUCinfinity in Wistar Hannover rat at 1 mg/kg, iv measured upto 24 hrs by LC-MS/MS analysis", "assay_type": "ADME, organism-based", "conditions": "in vivo"}, "[25]": {"assay": "Metabolic stability in monkey liver microsomes assessed as intrinsic clearance per mg protein at 0.2 uM measured upto 30 mins by LC-MS/MS analysis", "assay_type": "ADME, Macaca mulatta, Microsome", "conditions": "rhesus monkey, read-out: CLH"}, "[26]": {"assay": "Volume of distribution at steady state in Wistar Hannover rat at 1 mg/kg, iv measured upto 24 hrs by LC-MS/MS analysis", "assay_type": "ADME, organism-based", "conditions": "in vivo, iv, 1 mg/kg, 24 h"}}, "note": "Positions of bridges follow the written chain, without caps; N, C: chain ends. Non-standard residues stand in square brackets, D forms with d. Residues, ends and D or L forms follow the SMILES beside them. *: point of attachment. hPhe(3-Cl-4-CF3) = N[C@@H](CCc1ccc(C(F)(F)F)c(Cl)c1)C(=O)O; NMeGly(cPent) = CN[C@H](C(=O)O)C1CCCC1; NMeCha = CN[C@@H](CC1CCCCC1)C(=O)O; NMeD = CN[C@@H](CC(=O)O)C(=O)O; NMeL = CN[C@@H](CC(C)C)C(=O)O; NMeA = CN[C@@H](C)C(=O)O; Piperidide = C1CCN(*)CC1; Ac5c = NC1(C(=O)O)CCCC1; Aze = O=C(O)[C@@H]1CCN1; Sar = CNCC(=O)O", "data": [{"compound": "CC[C@H](C)[C@@H]1NC(=O)[C@H](CC(C)C)N(C)C(=O)C[C@@H](C(=O)N2CCCCC2)N(C)C(=O)[C@H](C2CCCC2)N(C)C(=O)C2(CCCC2)NC(=O)[C@@H]2CCCN2C(=O)[C@H](CCc2ccc(C(F)(F)F)c(Cl)c2)NC(=O)CN(C)C(=O)[C@H](CC2CCCCC2)N(C)C(=O)[C@@H]2CCN2C(=O)[C@H](C)N(C)C1=O", "note": "([NMeL]I[NMeA][Aze][NMeCha][Sar][hPhe(3-Cl-4-CF3)]P[Ac5c][NMeGly(cPent)][NMeD]-Piperidide; lactam N-11)", "values": [{"measurement": "clearance", "setting": "[1]", "value": 1.81, "unit": "mL/min/kg"}, {"measurement": "bioavailability", "setting": "[2]", "value": 5.7, "unit": "%"}, {"measurement": "microsomal CLint at 0.2 µM", "setting": "[3]", "value": 28, "unit": "µL/min/mg"}, {"measurement": "IC50", "setting": "ASPC1", "value": 18, "unit": "nM"}, {"measurement": "half-life", "setting": "[4]", "value": 8.62, "unit": "h"}, {"measurement": "half-life", "setting": "[5]", "value": 6.46, "unit": "h"}, {"measurement": "bioavailability", "setting": "[6]", "value": 11, "unit": "%"}, {"measurement": "half-life", "setting": "[7]", "value": 8.65, "unit": "h"}, {"measurement": "AUC(0-inf)", "setting": "[8]", "value": 1590, "unit": "ng·h/mL"}, {"measurement": "Vd", "setting": "[9]", "value": 0.85, "unit": "L/kg"}, {"measurement": "AUC", "setting": "[10]", "value": 3270, "unit": "ng·h/mL"}, {"measurement": "half-life", "setting": "[11]", "value": 3.95, "unit": "h"}, {"measurement": "Kd", "setting": "GTPase KRas", "value": 0.47, "unit": "nM"}, {"measurement": "microsomal CLint at 0.2 µM", "setting": "[12]", "value": 18, "unit": "µL/min/mg"}, {"measurement": "Papp at 3 h", "setting": "[13]", "value": 0.61, "unit": "×10⁻⁶ cm/s"}, {"measurement": "AUC(0-inf)", "setting": "[14]", "value": 5770, "unit": "ng·h/mL"}, {"measurement": "Vd", "setting": "[15]", "value": 0.49, "unit": "L/kg"}, {"measurement": "IC50", "setting": "[16]", "value": "< 2", "unit": "nM"}, {"measurement": "F", "setting": "[17]", "value": 16, "unit": "%"}, {"measurement": "half-life", "setting": "[18]", "value": 7.3, "unit": "h"}, {"measurement": "microsomal CLint at 0.2 µM", "setting": "[19]", "value": 24, "unit": "µL/min/mg"}, {"measurement": "t1/2", "setting": "[20]", "value": 6.23, "unit": "h"}, {"measurement": "clearance", "setting": "[21]", "value": 5.9, "unit": "mL/min/kg"}, {"measurement": "AUC(0-inf)", "setting": "[22]", "value": 10700, "unit": "ng·h/mL"}, {"measurement": "AUC", "setting": "[23]", "value": 2860, "unit": "ng·h/mL"}, {"measurement": "AUC(0-inf)", "setting": "[24]", "value": 7970, "unit": "ng·h/mL"}, {"measurement": "microsomal CLint at 0.2 µM", "setting": "[25]", "value": 32, "unit": "µL/min/mg"}, {"measurement": "Vdss", "setting": "[26]", "value": 2.6, "unit": "L/kg"}]}]}
